Where two headings read alike, the source gives them in different places.
Tests used:
mice [1] = experiment: Forced swim test; format: in vivo, mouse; details: for FST activity (Table 1 summary): in vivo, mice
[2] = target: T1, NOP/G-protein interaction (NOP receptor) (Homo sapiens, UniProt P41146); details: 2015, cited from earlier work; for antagonism of N/OFQ effects, NOP/G protein / rank order of antagonist potency, NOP/G protein: against N/OFQ, ref Camarda et al., 2009, Malfacini et al.
[3] = target: T2, NOP/β-arrestin 2 interaction (NOP receptor) (Homo sapiens, UniProt P41146); details: ref Malfacini et al., 2015, cited from earlier work; for antagonism of N/OFQ stimulated NOP/β-arrestin 2 interaction: against N/OFQ
mice [4] = experiment: Elevated plus maze; format: in vivo, mouse; details: for EPM activity (Table 1 summary): in vivo, mice
β-arrestin 2(−/−) mice [5] = details: chronic treatment, various assays; ref David et al., 2009; cited from earlier work
β-arrestin 2(−/−) mice [6] = details: ref Beaulieu et al., 2008, David et al., 2009; cited from earlier work
animals = details: ref Post et al. in press; cited from earlier work
patients = details: ref Post et al. in press; cited from earlier work
NOP(−/−) mice = experiment: Elevated plus maze; format: in vivo, mouse; details: Ro 65–6570 0.1 mg/kg, i.p.; 8–10 mice per group
NOP(+/+) mice = experiment: Elevated plus maze; format: in vivo, mouse; details: Ro 65–6570 0.1 mg/kg, i.p.; 8–10 mice per group
mice [7] = system: mice
rodents = details: ref Jenck et al., 1997, 2000; cited from earlier work
wild type mice = details: ref Beaulieu et al., 2008; cited from earlier work
[8] = target: T2, NOP/β-arrestin 2 interaction (NOP receptor); experiment: BRET assay, NOP/β-arrestin 2 interaction; format: cell-based; details: relative to N/OFQ
[9] = target: T1, NOP/G-protein interaction (NOP receptor); format: biochemical

T2 sequence (P41146 whole entry): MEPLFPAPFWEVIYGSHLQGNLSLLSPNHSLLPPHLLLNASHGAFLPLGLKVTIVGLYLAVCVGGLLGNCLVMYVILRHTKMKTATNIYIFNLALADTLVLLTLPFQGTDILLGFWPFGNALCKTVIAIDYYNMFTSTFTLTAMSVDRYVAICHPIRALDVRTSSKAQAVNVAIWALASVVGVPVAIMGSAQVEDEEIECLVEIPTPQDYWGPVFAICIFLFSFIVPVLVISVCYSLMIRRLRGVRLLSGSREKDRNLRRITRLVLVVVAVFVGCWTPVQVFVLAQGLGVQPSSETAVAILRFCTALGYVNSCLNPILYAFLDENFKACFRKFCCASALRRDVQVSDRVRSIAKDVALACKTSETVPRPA
T1 sequence (P41146 whole entry): as above

Cc1cccc2c1CC[C@H](CN1CCC(c3c(Cl)cccc3Cl)CC1)C[C@@H]2O [SB-612111, (−)-cis-1-methyl-7-[[4-(2,6-dichlorophenyl)piperidin-1-yl]methyl]-6,7,8,9-tetrahydro-5H-benzocyclohepten-5-ol]
FST activity (Table 1 summary) (mice [1]): antidepressant
antagonism of N/OFQ effects, NOP/G protein [2]: antagonized N/OFQ effects showing a competitive type of interaction
rank order of antagonist potency, NOP/G protein [2]: SB-612111 > UFP-101
pharmacological activity, G protein (Table 1 summary), previously obtained ([2]; in vitro, G protein, ref Malfacini et al.): antagonist
antagonism of N/OFQ stimulated NOP/β-arrestin 2 interaction [3]: able to antagonize
pharmacological activity, β-arrestin (Table 1 summary), previously obtained ([3]; in vitro, β-arrestin): antagonist
behavior in the EPM, per se (mice [4]; SB-612111 10 mg/kg, i.p., 30 min, CD-1 mice, 10–12 per group): did not modify per se the mouse behavior
block of the anxiolytic-like effects of Ro 65–6570 (mice [4]; SB-612111 10 mg/kg, i.p., 30 min pre-treatment, against Ro 65–6570 0.1 mg/kg i.p., CD-1 mice): completely block
EPM activity (Table 1 summary) (mice [4]): inactive

CNCCC(Oc1ccc(C(F)(F)F)cc1)c1ccccc1 (stereo not shown) [fluoxetine]
anxiolytic-like effects in β-arrestin 2(−/−) mice (β-arrestin 2(−/−) mice [5]): failed to induce anxiolytic-like effects
antidepressant effects, tail suspension test (β-arrestin 2(−/−) mice [6]): did not evoke antidepressant effects

Cc1nn(-c2ncccc2CO)cc1CN1CCC2(CC1)OCC(F)(F)c1cc(Cl)sc12 [LY2940094]
antidepressant effects, animals (animals): robust antidepressant effects
antidepressant effects, patients (patients): robust antidepressant effects

O=C1NCN(c2ccccc2)C12CCN(C1Cc3cccc4cccc1c34)CC2 (stereo not shown) [Ro 65–6570]
immobility time (mice [1]; Ro 65–6570 0.1 mg/kg, i.p., 30 min prior, CD-1 mice, 11–16 per group): had no effect
FST activity (Table 1 summary) (mice [1]): inactive
anxiolytic-like effect, NOP(−/−) mice (NOP(−/−) mice): not NOP(−/−) mice
time spent in and number of entries in the open arms (mice [4]; Ro 65–6570 0.01–0.1 mg/kg, i.p., 30 min prior, CD-1 mice, 12–16 per group): increased in a dose-dependent manner
EPM activity (Table 1 summary) (mice [4]): anxiolytic
anxiolytic-like effect, NOP(+/+) mice (NOP(+/+) mice): evident in NOP(+/+)
motor impairment in the rotarod test (mice [7]; mouse, in vivo): did not produce any motor impairment

O=C1NCN(c2ccccc2)C12CCN([C@@H]1CC[C@H]3CCCc4cccc1c43)CC2 [Ro64–6198]
anxiolytic-like effects (rodents): produce anxiolytic-like effects

[Li] [lithium]
latency to cross, light/dark test, wild type (wild type mice): reduces the latency to cross in wild type
antidepressant effects, tail suspension test (β-arrestin 2(−/−) mice [6]): did not evoke antidepressant effects

CC(C)[C@H]1CC[C@@H](N2CCC(N3C(=O)C(=O)c4ccccc43)CC2)CC1 [AT-090, 1-(1-(cis-4-isopropylcyclohexyl)piperidin-4-yl)indoline-2,3-dione]
motor impairment in the rotarod test (mice [7]; AT-090 at the higher dose tested, i.p., Fig. S1): did not evoke any motor impairment

[Nphe 1, Arg 14, Lys 15]N/OFQ-NH 2 [UFP-101]
FST activity (Table 1 summary) (mice [1]): antidepressant
stimulation of NOP/β-arrestin 2 interaction (in words) [8]: inactive
antagonism of N/OFQ effects, NOP/G protein [2]: antagonized N/OFQ effects showing a competitive type of interaction
rank order of antagonist potency, NOP/G protein [2]: SB-612111 > UFP-101
antagonism of N/OFQ stimulated NOP/β-arrestin 2 interaction [3]: able to antagonize
EPM activity (Table 1 summary) (mice [4]): inactive
stimulation of NOP/G-protein interaction (in words) [9]: inactive

Reference: publication PMC5567672 (Neuropharmacology, 2016)
